Data on 1 compound can be found in patent publication US7317038B2, “Nerve regeneration promoters containing semaphorin inhibitor as the active ingredient” (Dainippon Sumitomo Pharma Co., Ltd., priority 2000, dated 2008).

Assay [1] addresses T1, binding of Sema3A and Neuropilin-1 (Mus musculus, UniProt O08665).
T1 construct: alkaline phosphatase was fused from the 758th amino acid to the C terminal side in said Sema3A; expressed in transfected cells; host or cells: COS7
T1 sequence (O08665 21-758 limits assumed): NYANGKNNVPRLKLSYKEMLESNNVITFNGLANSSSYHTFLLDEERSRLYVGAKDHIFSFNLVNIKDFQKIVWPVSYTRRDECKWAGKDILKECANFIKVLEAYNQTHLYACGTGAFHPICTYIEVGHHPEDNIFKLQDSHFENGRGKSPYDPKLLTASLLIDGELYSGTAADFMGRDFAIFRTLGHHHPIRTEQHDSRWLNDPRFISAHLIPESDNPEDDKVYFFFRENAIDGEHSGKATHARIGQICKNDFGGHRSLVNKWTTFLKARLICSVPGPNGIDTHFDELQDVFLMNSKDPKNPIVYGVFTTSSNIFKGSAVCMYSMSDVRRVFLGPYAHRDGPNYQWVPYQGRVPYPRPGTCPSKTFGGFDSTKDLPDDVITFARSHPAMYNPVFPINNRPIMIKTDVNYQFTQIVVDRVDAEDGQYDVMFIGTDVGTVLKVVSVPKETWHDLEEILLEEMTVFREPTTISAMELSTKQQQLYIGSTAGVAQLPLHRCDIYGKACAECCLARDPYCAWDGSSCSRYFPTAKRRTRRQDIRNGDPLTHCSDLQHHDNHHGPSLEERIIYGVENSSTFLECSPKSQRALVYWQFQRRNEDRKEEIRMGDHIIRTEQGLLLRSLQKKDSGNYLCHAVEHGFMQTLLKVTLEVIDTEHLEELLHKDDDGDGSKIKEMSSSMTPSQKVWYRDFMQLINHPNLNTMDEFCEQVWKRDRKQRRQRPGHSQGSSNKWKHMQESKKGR
Description: Sema3A-receptor-binding experiment (Sema3A-AP to Neuropilin-1 expressing COS7 cells). The conditions noted are these: SPF-3059-1 0 to 10 μg/ml. An excerpt:
Whether SPF-3059-1 inhibits the binding of Sema3A and Neuropilin-1, which is a component constituting Sema3A receptor complex, was examined in the receptor-binding experiment. Neuropilin-1 and plexin Al are currently known as constituting components of Sema3A receptors. However, mainly Neuropilin-1 is known to contribute to Sema3A binding. Sema3A fused with alkaline phosphatase (human-derived: heat-resistance) (Sema3A-AP) was used as a ligand in the receptor-binding experiment and the amount bound to the receptor was detected with the alkaline phosphatase activity as an index. Mouse-derived Sema3A was used. A recombinant gene was generated in which alkaline phosphatase was fused from the 758th amino acid to the C terminal side in said Sema3A. This recombinant gene was then introduced into a COS7 cell where it was expressed and secreted and Sema3A-AP was prepared.
The receptor-binding experiment was performed as described below. The Neuropilin-1 expressing plasmid (pUCSRα-Neuropilin-1) was introduced into COS7 cells and cultivated for 24 hours. These cells express Neuropilin-1 on the cell surface. […] The alkaline phosphatase activity derived from Sema3A-AP in the cell extract (=binding amount of Sema3A-AP) was determined. […] The solution was then measured for its absorbance at 405 nm (p-nitrophenol: generated from p-nitirophenyl phosphate with alkaline phosphatase).

In assay [2] the target is T2, rat semaphorin 6C-AP (Sema6C-AP) (Rattus norvegicus, UniProt Q9WTL3).
T2 construct: a fusion protein of extracellular domain of Sema6C and human placenta-derived alkaline phosphatase
T2 sequence (Q9WTL3 24-635 limits assumed): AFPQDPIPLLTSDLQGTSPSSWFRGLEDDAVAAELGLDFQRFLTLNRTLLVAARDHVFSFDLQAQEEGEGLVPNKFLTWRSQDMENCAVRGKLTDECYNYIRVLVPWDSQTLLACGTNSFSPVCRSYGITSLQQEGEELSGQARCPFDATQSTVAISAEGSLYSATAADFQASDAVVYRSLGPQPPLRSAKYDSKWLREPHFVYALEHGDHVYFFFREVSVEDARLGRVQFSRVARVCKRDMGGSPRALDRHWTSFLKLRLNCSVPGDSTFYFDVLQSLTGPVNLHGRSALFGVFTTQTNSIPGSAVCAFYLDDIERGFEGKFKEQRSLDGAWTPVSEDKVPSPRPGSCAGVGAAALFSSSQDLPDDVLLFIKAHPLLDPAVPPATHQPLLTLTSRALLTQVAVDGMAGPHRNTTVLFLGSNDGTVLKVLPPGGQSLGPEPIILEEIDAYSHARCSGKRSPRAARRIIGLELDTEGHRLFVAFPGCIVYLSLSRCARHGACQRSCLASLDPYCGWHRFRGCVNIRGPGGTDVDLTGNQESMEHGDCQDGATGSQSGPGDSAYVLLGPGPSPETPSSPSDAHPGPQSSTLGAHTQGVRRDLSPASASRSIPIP
Description: Suppression of growth cone collapse activity of Sema6C-AP (chick embryo dorsal root ganglions). It is filed as cell-based. As for the experimental part: The experiment was carried out in a same way as in Example 2 except that rat semaphorin 6C-AP (Sema6C-AP: a fusion protein of extracellular domain of Sema6C and human placenta-derived alkaline phosphatase) was used instead of mouse semaphorin 3A (Sema3A), and dorsal root ganglions excised from 8-day-old chick embryos were used instead of those excised from 7-day-old chick embryos. The collapse rate of growth cone was measured when Sema6C-AP was added one hour after the addition of the compound SPF-3059-1 at various concentrations.

“Also recorded” adds a separate entry of the source.

Turning to `CC(=O)c1c(C)c(C(=O)C2COc3cc(O)c(O)c(C(=O)O)c3C2=O)cc2c(=O)c3c(C(=O)O)c(O)c(O)cc3oc12` (stereo not drawn) [SPF-3059-1], the “binding of Sema3A-AP to Neuropilin-1 expressing COS7 cells” value in assay [1] is “decrease in a concentration-dependent manner; also recorded: inhibits the binding of Sema3A-AP to Neuropilin-1 in a concentration-dependent manner”. Besides, in assay [2] (E8 chick embryo dorsal root ganglions, Sema6C-AP added one hour after compound), the “inhibition of growth cone collapse activity of Sema6C-AP (in words)” value is on record as “inhibit the growth cone collapse activities of Sema6C-AP in a concentration-dependent manner”. Further, in assay [2] (Sema6C-AP not added), the “collapse rate of growth cones, compound alone” value was “did not affect the rate at all”.
